Data: ChEMBL document CHEMBL5385895, “Design, synthesis, biological evaluation of urea substituted 1,2,5-oxadiazole-3-carboximidamides as novel indoleamine 2,3-dioxygenase-1 (IDO1) inhibitors” (Eur J Med Chem, 2023)
Calls of active or inactive are those of the source. No cut-off for these calls is given here.

Assays:
[1] = target: T1, Indoleamine 2,3-dioxygenase 2 (Homo sapiens) (UniProt Q6ZQW0); test: Inhibition of human recombinant IDO2 assessed as reduction in N-formylkynurenine formation using L-tryptophan as substrate at 1 uM preincubated for 30 mins followed by substrate addition and measured after 20 mins by SpectraMax microplate reader analysis; settings: time 50.0 min
T1 sequence (whole entry): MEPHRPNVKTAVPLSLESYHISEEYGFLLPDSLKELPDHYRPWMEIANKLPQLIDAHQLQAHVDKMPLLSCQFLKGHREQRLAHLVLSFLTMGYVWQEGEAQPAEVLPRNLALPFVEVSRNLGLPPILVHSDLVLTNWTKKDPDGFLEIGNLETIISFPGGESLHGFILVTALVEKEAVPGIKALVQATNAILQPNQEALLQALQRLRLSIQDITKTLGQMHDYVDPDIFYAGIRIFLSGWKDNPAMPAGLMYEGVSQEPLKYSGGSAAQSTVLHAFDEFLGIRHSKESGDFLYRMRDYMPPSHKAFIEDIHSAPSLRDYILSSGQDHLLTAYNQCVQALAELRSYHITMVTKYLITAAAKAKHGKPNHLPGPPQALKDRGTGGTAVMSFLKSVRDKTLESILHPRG

[2] = target: T2, Indoleamine 2,3-dioxygenase 1 (Homo sapiens, UniProt P14902); test: Inhibition of human recombinant IDO1 assessed as reduction in N-formylkynurenine formation using L-tryptophan as substrate preincubated for 30 mins followed by substrate addition and measured after 20 mins by SpectraMax microplate reader analysis
T2 sequence (P14902 whole entry): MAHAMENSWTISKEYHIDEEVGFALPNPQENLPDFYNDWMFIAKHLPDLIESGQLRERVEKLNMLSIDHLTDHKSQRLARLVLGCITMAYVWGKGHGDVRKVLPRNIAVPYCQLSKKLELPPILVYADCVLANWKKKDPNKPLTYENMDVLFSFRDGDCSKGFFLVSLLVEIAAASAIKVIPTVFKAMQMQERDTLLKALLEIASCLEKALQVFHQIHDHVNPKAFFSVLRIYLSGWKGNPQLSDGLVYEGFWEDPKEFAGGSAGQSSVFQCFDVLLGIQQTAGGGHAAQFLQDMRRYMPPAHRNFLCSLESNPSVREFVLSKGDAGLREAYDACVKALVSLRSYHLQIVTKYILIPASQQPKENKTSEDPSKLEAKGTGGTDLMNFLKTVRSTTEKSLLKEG

[3] = target: Tryptophan 2,3-dioxygenase (Homo sapiens) (UniProt P48775); test: Inhibition of human recombinant TDO assessed as reduction in N-formylkynurenine formation using L-tryptophan as substrate at 1 uM preincubated for 30 mins followed by substrate addition and measured after 20 mins by SpectraMax microplate reader analysis; settings: time 50.0 min
Tryptophan 2,3-dioxygenase (Homo sapiens), sequence (P48775 whole entry, looked up): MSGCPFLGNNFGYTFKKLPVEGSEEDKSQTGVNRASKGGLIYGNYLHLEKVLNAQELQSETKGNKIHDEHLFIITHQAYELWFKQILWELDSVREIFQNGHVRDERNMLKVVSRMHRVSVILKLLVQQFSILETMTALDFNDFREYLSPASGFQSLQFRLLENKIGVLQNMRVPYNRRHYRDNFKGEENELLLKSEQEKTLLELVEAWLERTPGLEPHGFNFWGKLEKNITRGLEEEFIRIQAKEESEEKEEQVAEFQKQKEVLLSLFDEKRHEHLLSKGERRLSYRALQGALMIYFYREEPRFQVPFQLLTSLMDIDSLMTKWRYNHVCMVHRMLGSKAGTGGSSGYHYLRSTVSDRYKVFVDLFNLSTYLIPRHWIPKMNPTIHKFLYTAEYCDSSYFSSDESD

[4] = target: T2, Indoleamine 2,3-dioxygenase 1; test: Inhibition of IDO1 in IFN-gamma-induced human HeLa cells assessed as reduction in N-formylkynurenine formation using L-tryptophan as substrate preincubated for 24 hrs followed by substrate addition and measured after 30 mins by SpectraMax microplate reader analysis; format: cell-based
[5] = system: CT26; test: cells; settings: Mus musculus, CT26, 24 h
[6] = cells; settings: Mus musculus, Lung cancer cell line, 24 h
[7] = system: HeLa; test: cells; settings: Homo sapiens, 24 h
[8] = system: HCT-116; test: cells; settings: Homo sapiens, HCT-116, 24 h
[9] = Anti-tumor efficacy against mouse LLC cells implanted in C57BL/6 mouse assessed as tumor growth inhibition at 100 mg/kg, po bid treated for 21 days relative to control; format: functional; settings: Lewis lung carcinoma, 504 h, time 21 day, read-out: TGI
[10] = Tmax in Sprague-Dawley rat at 25 mg/kg, po by LC-MS/MS analysis; format: ADME, organism-based; settings: in vivo
[11] = Tmax in Sprague-Dawley rat at 5 mg/kg, iv by LC-MS/MS analysis; format: ADME, organism-based; settings: in vivo
[12] = Volume of distribution in Sprague-Dawley rat at 5 mg/kg, iv by LC-MS/MS analysis; format: ADME, organism-based; settings: in vivo
[13] = AUC (0 to infinity) in Sprague-Dawley rat at 25 mg/kg, po by LC-MS/MS analysis; format: ADME, organism-based; parameters: dose 25 mg/kg, route po; settings: in vivo
[14] = Half life in Sprague-Dawley rat at 25 mg/kg, po by LC-MS/MS analysis; format: ADME, organism-based; settings: in vivo
[15] = Apparent permeability of the compound across basolateral to apical side in dog MDCKII cells measured for 2 hrs by LC-MS/MS analysis; format: ADME, cell-based, Canis lupus familiaris, MDCK-II; settings: MDCK
[16] = AUC (0 to infinity) in Sprague-Dawley rat at 5 mg/kg, iv by LC-MS/MS analysis; format: ADME, organism-based; parameters: dose 5 mg/kg, route iv; settings: in vivo
[17] = AUC (0 to t) in Sprague-Dawley rat at 25 mg/kg, po by LC-MS/MS analysis; format: ADME, organism-based; parameters: dose 25 mg/kg, route po; settings: in vivo
[18] = Plasma clearance in Sprague-Dawley rat at 5 mg/kg, iv by LC-MS/MS analysis; format: ADME, organism-based
[19] = AUC (0 to t) in Sprague-Dawley rat at 5 mg/kg, iv by LC-MS/MS analysis; format: ADME, organism-based; parameters: dose 5 mg/kg, route iv; settings: in vivo
[20] = Half life in Sprague-Dawley rat at 5 mg/kg, iv by LC-MS/MS analysis; format: ADME, organism-based; settings: in vivo
[21] = Oral bioavailability in Sprague-Dawley rat at 25 mg/kg by LC-MS/MS analysis; format: ADME, organism-based; settings: in vivo
[22] = Cmax in Sprague-Dawley rat at 5 mg/kg, iv by LC-MS/MS analysis; format: ADME, organism-based; parameters: dose 5 mg/kg, route iv; settings: in vivo
[23] = Apparent permeability of the compound across apical to basolateral side in dog MDCK-II cells measured for 2 hrs by LC-MS/MS analysis; format: ADME, cell-based, Canis lupus familiaris

inhibition [1] | IC50 [2] [nM] | inhibition [3] | IC50 [4] [nM] | SMILES | also measured
inactive | > 1000 | inactive |  | O=C(Nc1nonc1/C(=N/O)Nc1ccc(F)c(Br)c1)N1CCCCC1 | 
inactive | 847 | inactive |  | O=C(NCC1CCCCC1)Nc1nonc1/C(=N/O)Nc1ccc(F)c(Br)c1 | 
inactive | 298 | inactive |  | COc1ccccc1NC(=O)Nc1nonc1/C(=N/O)Nc1ccc(F)c(Br)c1 | 
inactive | 109 | inactive | 41.1 | O=C(NCC1CCC1)Nc1nonc1/C(=N/O)Nc1ccc(F)c(Br)c1 | 
inactive | 224 | inactive | 68.7 | O=C(Nc1ccc(Br)cc1)Nc1nonc1/C(=N/O)Nc1ccc(F)c(Br)c1 | 
inactive | 96.3 | inactive | 41.7 | CC(C)CNC(=O)Nc1nonc1/C(=N/O)Nc1ccc(F)c(Br)c1 | 
inactive | 166 | inactive | 31.7 | O=C(Nc1nonc1/C(=N/O)Nc1ccc(F)c(Br)c1)NC1CCC1 | 
inactive | 222 | inactive | 92.3 | CCCNC(=O)Nc1nonc1/C(=N/O)Nc1ccc(F)c(Br)c1 | 
inactive | 82.6 | inactive | 58.2 | CC(C)NC(=O)Nc1nonc1/C(=N/O)Nc1ccc(F)c(Br)c1 | 
inactive | 197 | inactive | 49.5 | O=C(Nc1ccccc1)Nc1nonc1/C(=N/O)Nc1ccc(F)c(Br)c1 | 
inactive | > 1000 | inactive |  | NCCCCNC(=O)Nc1nonc1/C(=N/O)Nc1ccc(F)c(Br)c1 | 
inactive | 183 | inactive | 111 | COc1cccc(NC(=O)Nc2nonc2/C(=N/O)Nc2ccc(F)c(Br)c2)c1 | 
inactive | 311 | inactive |  | O=C(Nc1ccc(Cl)cc1)Nc1nonc1/C(=N/O)Nc1ccc(F)c(Br)c1 | 
inactive | > 1000 | inactive |  | O=C(Nc1nonc1/C(=N/O)Nc1ccc(F)c(Br)c1)N1CCCC1 | 
inactive | 159 | inactive | 103 | CCCCNC(=O)Nc1nonc1/C(=N/O)Nc1ccc(F)c(Br)c1 | 
inactive | > 1000 | inactive |  | COCCCNC(=O)Nc1nonc1/C(=N/O)Nc1ccc(F)c(Br)c1 | 
inactive | 544 | inactive |  | O=C(Nc1nonc1/C(=N/O)Nc1ccc(F)c(Br)c1)NC1CCCCC1 | 

inhibition [1] | IC50 [2] [nM] | inhibition [3] | IC50 [4] [nM] | SMILES | also measured
inactive | > 1000 | inactive |  | O=C(NCCO)Nc1nonc1/C(=N/O)Nc1ccc(F)c(Br)c1 | 
inactive | 612 | inactive |  | CN1CCN(C(=O)Nc2nonc2/C(=N/O)Nc2ccc(F)c(Br)c2)CC1 | 
inactive | 77 | inactive | 30.2 | O=C(NCC1CC1)Nc1nonc1/C(=N/O)Nc1ccc(F)c(Br)c1 | IC50 [5]: > 80000 nM; IC50 [6]: > 50000 nM; IC50 [7]: 54300 nM; IC50 [8]: 55100 nM
inactive | 148 | inactive | 43.7 | COc1ccc(NC(=O)Nc2nonc2/C(=N/O)Nc2ccc(F)c(Br)c2)cc1 | 
inactive | 632 | inactive |  | O=C(Nc1nonc1/C(=N/O)Nc1ccc(F)c(Br)c1)N1CCC1 | 
inactive | 118 | inactive | 44.6 | CNC(=O)Nc1nonc1/C(=N/O)Nc1ccc(F)c(Br)c1 | 
inactive | 331 | inactive |  | COc1ccc(NC(=O)Nc2nonc2/C(=N/O)Nc2ccc(F)c(Br)c2)cc1OC | 
inactive | > 1000 | inactive |  | NCCNC(=O)Nc1nonc1/C(=N/O)Nc1ccc(F)c(Br)c1 | 
inactive | 347 | inactive |  | CN(C)C(=O)Nc1nonc1/C(=N/O)Nc1ccc(F)c(Br)c1 | 
inactive | 314 | inactive |  | O=C(Nc1nonc1/C(=N/O)Nc1ccc(F)c(Br)c1)NC1CCCC1 | 
inactive |  | inactive |  | NS(=O)(=O)NCCNc1nonc1/C(=N/O)Nc1ccc(F)c(Br)c1 [EPACADOSTAT] | IC50 [5]: 64600 nM; IC50 [6]: > 50000 nM; inhibition in vivo at 100 mg/kg [9]: 38.8%; IC50 [7]: 59800 nM; IC50 [8]: 36300 nM
inactive | > 1000 | inactive |  | NCCCNC(=O)Nc1nonc1/C(=N/O)Nc1ccc(F)c(Br)c1 | 
inactive | 79.3 | inactive | 36.5 | O=C(Nc1nonc1/C(=N/O)Nc1ccc(F)c(Br)c1)NC1CC1 | 
inactive | > 1000 | inactive |  | O=C(Nc1nonc1/C(=N/O)Nc1ccc(F)c(Br)c1)N1CCC(O)C1 (stereo not given) | 
inactive | > 1000 | inactive |  | CN(C)CCNC(=O)Nc1nonc1/C(=N/O)Nc1ccc(F)c(Br)c1 | 
inactive | 208 | inactive | 51.7 | O=C(Nc1ccc(F)cc1)Nc1nonc1/C(=N/O)Nc1ccc(F)c(Br)c1 | 
 |  |  |  | NS(=O)(=O)NCCNc1nonc1C(=NO)Nc1ccc(F)c(Br)c1 [EPACADOSTAT] | Tmax [10]: 18.6 min; Tmax [11]: 1.98 min; Vd [12]: 5.73 L/kg; AUC(0-inf) [13]: 530 ng·h/mL; half-life [14]: 133 min; Papp B→A at 2 h [15]: 7.36 ×10⁻⁶ cm/s; AUC(0-inf) [16]: 856 ng·h/mL; AUC(0-t) [17]: 472 ng·h/mL; clearance [18]: 102 mL/min/kg; AUC(0-t) [19]: 836 ng·h/mL; half-life [20]: 38.4 min; bioavailability [21]: 12.4%; Cmax [22]: 2430 ng/mL; Papp A→B at 2 h [23]: 3.12 ×10⁻⁶ cm/s
